Legend:
C57BL/6J mice = assay: Cued fear conditioning, extinction training and recall (Example 35); type: in vivo, mouse
Description: Methods: Cued fear conditioning was performed in C57BL/6J mice. On day 1, animals were placed in the chambers and presented with a training session (CS-US pairing). The training consisted of a 2-minute habituation followed by a 30-second, 80 dB tone; during the last 2 seconds of the tone animals received a 1 mA foot shock. This US-CS procedure occurred once for a total of one paired presentation of tone and shock. Freezing behavior (immobility) was recorded in 5-10-sec intervals during the session. Percent baseline freezing behavior was determined in the 2-minute habituation period. On day 3, animals were placed in context B, in which tactile and odor cues differed from context A. Following a 2 minute acclimation period animals received 4×30 sec presentations of the CS (tone) in the absence of the US (footshock), with a 45 sec interval between presentations. Freezing was recorded in 5-10-sec intervals to measure baseline freezing response to the altered context, and freezing response to each tone cue presentation. […] Freezing was recorded in 5-10-sec intervals to measure baseline freezing response to the altered context, and freezing response to each tone cue presentation.

168 GPCRs [1] = target: 168 GPCRs (Homo sapiens, UniProt O43193); assay: β-arrestin based GPCR screen (PathHunter / GPCRmax), antagonist mode; details: MLNR
Sequence of 168 GPCRs (Homo sapiens, UniProt O43193) (O43193 whole entry): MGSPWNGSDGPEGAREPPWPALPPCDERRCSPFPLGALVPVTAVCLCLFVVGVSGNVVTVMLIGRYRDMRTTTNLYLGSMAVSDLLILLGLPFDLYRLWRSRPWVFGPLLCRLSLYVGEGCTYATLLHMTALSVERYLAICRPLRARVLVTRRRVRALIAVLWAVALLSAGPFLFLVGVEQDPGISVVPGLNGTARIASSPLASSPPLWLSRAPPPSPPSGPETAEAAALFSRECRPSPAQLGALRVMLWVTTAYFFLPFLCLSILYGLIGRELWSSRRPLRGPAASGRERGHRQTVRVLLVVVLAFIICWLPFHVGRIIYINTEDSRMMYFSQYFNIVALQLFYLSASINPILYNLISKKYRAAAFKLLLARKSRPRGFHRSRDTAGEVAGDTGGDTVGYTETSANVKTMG

168 GPCRs [2] = target: 168 GPCRs (Homo sapiens, UniProt P23945); assay: as above; details: FSHR
Sequence of 168 GPCRs (Homo sapiens, UniProt P23945) (P23945 18-695): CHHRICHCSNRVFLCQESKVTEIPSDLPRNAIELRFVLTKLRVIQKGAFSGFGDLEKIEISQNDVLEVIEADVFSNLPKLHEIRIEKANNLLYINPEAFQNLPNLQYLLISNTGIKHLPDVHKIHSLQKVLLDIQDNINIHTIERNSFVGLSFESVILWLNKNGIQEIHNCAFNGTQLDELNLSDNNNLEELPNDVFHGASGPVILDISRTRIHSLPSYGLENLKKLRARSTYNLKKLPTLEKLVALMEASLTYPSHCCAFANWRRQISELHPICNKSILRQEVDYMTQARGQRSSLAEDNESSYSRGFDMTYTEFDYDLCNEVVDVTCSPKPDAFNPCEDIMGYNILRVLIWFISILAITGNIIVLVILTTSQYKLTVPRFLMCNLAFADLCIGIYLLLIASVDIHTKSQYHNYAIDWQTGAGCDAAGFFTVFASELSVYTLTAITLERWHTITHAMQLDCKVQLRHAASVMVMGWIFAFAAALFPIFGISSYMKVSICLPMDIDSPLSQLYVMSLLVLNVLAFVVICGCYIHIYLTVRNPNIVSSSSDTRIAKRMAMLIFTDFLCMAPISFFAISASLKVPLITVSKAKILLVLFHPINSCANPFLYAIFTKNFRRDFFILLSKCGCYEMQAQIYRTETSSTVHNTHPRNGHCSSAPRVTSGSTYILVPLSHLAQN

168 GPCRs [3] = target: 168 GPCRs (Homo sapiens, UniProt P25101); assay: as above; details: EDNRA
Sequence of 168 GPCRs (Homo sapiens, UniProt P25101) (P25101 21-427): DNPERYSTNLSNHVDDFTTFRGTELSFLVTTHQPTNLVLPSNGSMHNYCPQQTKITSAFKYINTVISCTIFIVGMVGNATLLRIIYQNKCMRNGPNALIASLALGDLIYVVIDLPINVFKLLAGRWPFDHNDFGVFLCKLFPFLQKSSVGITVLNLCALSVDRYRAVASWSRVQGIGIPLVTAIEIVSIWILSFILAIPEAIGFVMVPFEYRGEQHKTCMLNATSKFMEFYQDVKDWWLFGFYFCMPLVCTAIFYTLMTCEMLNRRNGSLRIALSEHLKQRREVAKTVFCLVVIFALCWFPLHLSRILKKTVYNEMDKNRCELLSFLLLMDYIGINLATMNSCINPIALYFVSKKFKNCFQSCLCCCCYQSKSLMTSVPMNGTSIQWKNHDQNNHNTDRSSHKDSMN

168 GPCRs [4] = target: 168 GPCRs (Homo sapiens, UniProt P32239); assay: as above; details: CCKBR, Antagonist
168 GPCRs [5] = target: 168 GPCRs (Homo sapiens, UniProt P32241); assay: as above
168 GPCRs [6] = target: 168 GPCRs (Homo sapiens, UniProt P33032); assay: as above; details: MC5R
168 GPCRs [7] = target: 168 GPCRs (Homo sapiens, UniProt P34972); assay: as above
168 GPCRs [8] = target: 168 GPCRs (Homo sapiens, UniProt P35368); assay: as above; details: ADRA1B, Antagonist
Sequence of 168 GPCRs (Homo sapiens, UniProt P35368) (P35368 whole entry): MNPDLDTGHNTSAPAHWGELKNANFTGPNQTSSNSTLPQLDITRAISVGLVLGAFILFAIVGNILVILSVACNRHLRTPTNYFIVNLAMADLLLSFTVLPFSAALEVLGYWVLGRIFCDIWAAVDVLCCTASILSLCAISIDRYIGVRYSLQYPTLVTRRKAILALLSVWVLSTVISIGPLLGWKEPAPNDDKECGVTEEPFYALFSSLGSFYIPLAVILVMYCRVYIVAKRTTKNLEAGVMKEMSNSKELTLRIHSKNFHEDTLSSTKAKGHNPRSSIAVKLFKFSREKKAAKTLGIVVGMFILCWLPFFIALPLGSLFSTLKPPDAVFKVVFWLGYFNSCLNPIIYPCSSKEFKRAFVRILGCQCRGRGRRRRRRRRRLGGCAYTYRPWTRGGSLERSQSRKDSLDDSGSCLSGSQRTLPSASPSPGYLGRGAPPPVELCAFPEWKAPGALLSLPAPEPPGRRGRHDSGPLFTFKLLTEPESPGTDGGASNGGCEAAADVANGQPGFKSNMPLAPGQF

168 GPCRs [9] = target: 168 GPCRs (Homo sapiens, UniProt P37288); assay: as above; details: AVPR1A, Antagonist
Sequence of 168 GPCRs (Homo sapiens, UniProt P37288) (P37288 whole entry): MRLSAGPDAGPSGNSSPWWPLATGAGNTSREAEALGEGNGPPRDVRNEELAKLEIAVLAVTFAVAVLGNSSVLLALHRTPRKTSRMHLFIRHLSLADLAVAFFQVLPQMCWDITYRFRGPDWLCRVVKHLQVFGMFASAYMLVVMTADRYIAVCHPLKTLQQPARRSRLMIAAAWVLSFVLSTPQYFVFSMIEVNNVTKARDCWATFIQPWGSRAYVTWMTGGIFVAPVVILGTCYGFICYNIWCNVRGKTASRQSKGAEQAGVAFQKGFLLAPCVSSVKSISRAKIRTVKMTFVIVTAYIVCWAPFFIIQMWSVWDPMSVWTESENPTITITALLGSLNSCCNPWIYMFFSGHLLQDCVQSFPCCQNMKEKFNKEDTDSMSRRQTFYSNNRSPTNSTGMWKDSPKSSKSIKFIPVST

168 GPCRs [10] = target: 168 GPCRs (Homo sapiens, UniProt P47872); assay: as above; details: SCTR
168 GPCRs [11] = target: 168 GPCRs (Homo sapiens, UniProt P49146); assay: as above; details: NPY2R
Sequence of 168 GPCRs (Homo sapiens, UniProt P49146) (P49146 whole entry): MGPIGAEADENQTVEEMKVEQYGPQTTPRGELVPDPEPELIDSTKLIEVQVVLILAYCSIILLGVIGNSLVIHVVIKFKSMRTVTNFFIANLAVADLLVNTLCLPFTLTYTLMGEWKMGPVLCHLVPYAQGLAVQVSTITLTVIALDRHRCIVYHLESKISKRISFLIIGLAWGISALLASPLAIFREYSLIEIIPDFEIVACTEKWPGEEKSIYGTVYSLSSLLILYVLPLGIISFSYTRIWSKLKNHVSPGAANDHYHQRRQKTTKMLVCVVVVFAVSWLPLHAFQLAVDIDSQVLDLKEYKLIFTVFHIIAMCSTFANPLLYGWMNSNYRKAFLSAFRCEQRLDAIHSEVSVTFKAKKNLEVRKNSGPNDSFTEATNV

168 GPCRs [12] = target: 168 GPCRs (Homo sapiens, UniProt P49683); assay: as above; details: PRLHR
168 GPCRs [13] = target: 168 GPCRs (Homo sapiens, UniProt P50391); assay: as above
Sequence of 168 GPCRs (Homo sapiens, UniProt P50391) (P50391 whole entry): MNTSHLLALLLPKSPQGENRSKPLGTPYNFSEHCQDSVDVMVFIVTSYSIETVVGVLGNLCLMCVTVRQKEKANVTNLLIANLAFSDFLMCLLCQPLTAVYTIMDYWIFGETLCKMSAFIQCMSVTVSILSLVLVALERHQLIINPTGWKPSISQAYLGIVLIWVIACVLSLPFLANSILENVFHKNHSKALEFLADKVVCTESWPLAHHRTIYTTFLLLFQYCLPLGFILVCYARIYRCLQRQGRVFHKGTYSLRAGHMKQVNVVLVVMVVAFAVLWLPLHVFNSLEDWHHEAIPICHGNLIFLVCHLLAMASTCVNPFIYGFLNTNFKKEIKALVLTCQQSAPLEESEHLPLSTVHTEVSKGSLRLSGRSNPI

168 GPCRs [14] = target: 168 GPCRs (Homo sapiens, UniProt Q16581); assay: as above; details: C3AR1, Antagonist
Sequence of 168 GPCRs (Homo sapiens, UniProt Q16581) (Q16581 whole entry): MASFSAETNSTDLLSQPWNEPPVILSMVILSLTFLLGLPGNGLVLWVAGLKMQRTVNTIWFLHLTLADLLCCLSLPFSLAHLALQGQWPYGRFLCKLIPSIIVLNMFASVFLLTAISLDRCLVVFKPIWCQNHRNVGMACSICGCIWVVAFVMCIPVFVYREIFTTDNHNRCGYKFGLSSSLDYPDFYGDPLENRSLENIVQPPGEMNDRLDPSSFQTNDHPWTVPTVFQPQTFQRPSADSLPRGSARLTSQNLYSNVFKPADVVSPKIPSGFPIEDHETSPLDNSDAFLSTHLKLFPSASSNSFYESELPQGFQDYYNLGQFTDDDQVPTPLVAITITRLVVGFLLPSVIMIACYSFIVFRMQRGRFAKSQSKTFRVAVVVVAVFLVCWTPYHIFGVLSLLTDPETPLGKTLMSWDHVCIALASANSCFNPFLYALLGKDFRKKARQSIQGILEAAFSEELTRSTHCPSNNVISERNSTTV

168 GPCRs [15] = target: 168 GPCRs (Homo sapiens, UniProt Q96LB1); assay: as above
Sequence of 168 GPCRs (Homo sapiens, UniProt Q96LB1) (Q96LB1 whole entry): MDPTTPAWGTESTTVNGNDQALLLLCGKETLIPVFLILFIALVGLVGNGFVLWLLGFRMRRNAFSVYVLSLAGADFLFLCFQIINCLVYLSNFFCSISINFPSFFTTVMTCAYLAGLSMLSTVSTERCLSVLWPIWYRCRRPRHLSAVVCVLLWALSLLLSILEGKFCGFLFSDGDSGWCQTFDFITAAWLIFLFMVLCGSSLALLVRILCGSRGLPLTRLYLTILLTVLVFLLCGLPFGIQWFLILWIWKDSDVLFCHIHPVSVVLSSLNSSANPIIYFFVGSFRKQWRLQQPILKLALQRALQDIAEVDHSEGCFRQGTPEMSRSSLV

168 GPCRs [16] = target: 168 GPCRs (Homo sapiens, UniProt Q96LB2); assay: as above
Sequence of 168 GPCRs (Homo sapiens, UniProt Q96LB2) (Q96LB2 whole entry): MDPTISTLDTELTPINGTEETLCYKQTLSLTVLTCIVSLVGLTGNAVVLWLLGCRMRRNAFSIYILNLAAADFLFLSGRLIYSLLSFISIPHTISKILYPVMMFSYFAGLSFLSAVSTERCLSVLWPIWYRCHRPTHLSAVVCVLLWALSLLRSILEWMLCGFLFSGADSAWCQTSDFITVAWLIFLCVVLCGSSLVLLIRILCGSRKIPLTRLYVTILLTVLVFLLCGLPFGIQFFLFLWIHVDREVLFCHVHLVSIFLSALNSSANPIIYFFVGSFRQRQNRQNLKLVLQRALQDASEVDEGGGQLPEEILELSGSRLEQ

168 GPCRs [17] = target: 168 GPCRs (Homo sapiens, UniProt Q9NSD7); assay: as above
Sequence of 168 GPCRs (Homo sapiens, UniProt Q9NSD7) (Q9NSD7 whole entry): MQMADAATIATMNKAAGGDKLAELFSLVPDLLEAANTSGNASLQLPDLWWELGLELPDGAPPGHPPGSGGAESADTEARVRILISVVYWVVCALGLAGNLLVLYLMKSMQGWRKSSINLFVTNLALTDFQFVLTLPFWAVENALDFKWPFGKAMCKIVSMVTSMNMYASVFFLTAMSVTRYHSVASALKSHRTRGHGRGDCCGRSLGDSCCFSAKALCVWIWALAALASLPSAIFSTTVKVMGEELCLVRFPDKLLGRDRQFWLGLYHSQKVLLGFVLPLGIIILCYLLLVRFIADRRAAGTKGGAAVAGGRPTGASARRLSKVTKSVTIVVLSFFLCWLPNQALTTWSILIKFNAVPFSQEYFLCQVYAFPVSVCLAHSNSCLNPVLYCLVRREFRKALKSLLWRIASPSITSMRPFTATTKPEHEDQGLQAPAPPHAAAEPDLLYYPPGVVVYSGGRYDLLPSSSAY

In the case of `CNC(C)C(=O)c1ccc2c(c1)OCO2` (stereo not drawn) [methylone, 3,4-methylenedioxy-N-methylcathinone], the “fear extinction training on day 3” value (C57BL/6J mice; all doses: 10, 20 or 30 mg/kg IP) is reported as “significantly improved fear extinction training”, the “effect on fear extinction training and testing” value (C57BL/6J mice; methylone 30 mg/kg IP 30 min before extinction training on Day 3) is reported as “rapid, robust and long-lasting beneficial effect” and the activity at 10 µM (168 GPCRs [1]; Antagonist mode, 10 uM) is reported as 12.3%. The activity at 1 µM (168 GPCRs [1]; Antagonist, 1 uM) was 15.6%, the activity at 10 µM (168 GPCRs [2]; Antagonist mode, 10 uM) was -8.4% and the activity at 1 µM (168 GPCRs [2]; Antagonist, 1 uM) was -11.8%. For the same compound, the activity at 10 µM (168 GPCRs [3]; Antagonist mode, 10 uM) was -11.3%, the activity at 1 µM (168 GPCRs [3]; Antagonist, 1 uM) was -2.4% and the activity at 1 µM (168 GPCRs [4]; 1 uM) was -1.1%. The activity at 10 µM (168 GPCRs [4]; 10 uM) was -2.4%, the activity at 10 µM (168 GPCRs [5]; VIPR1, Antagonist mode, 10 uM) was 5.3% and the activity at 1 µM (168 GPCRs [5]; VIPR1, Antagonist, 1 uM) was -0.7%. The activity at 10 µM (168 GPCRs [6]; Antagonist mode, 10 uM) was -6.3%, the activity at 1 µM (168 GPCRs [6]; Antagonist, 1 uM) was 1.7% and the activity at 10 µM (168 GPCRs [7]; CNR2, Antagonist mode, 10 uM) was -3.2%. The activity at 1 µM (168 GPCRs [7]; CNR2, Antagonist, 1 uM) was 3.6%, the activity at 1 µM (168 GPCRs [8]; 1 uM) was 17.9% and the activity at 10 µM (168 GPCRs [8]; 10 uM) was 20.6%. For the same compound, the activity at 1 µM (168 GPCRs [9]; 1 uM) was -3%, the activity at 10 µM (168 GPCRs [9]; 10 uM) was 2.8% and the activity at 10 µM (168 GPCRs [10]; Antagonist mode, 10 uM) was 2.5%. The activity at 1 µM (168 GPCRs [10]; Antagonist, 1 uM) was 5.3%, the activity at 10 µM (168 GPCRs [11]; Antagonist mode, 10 uM) was 2% and the activity at 1 µM (168 GPCRs [11]; Antagonist, 1 uM) was 2.3%. It also gave an activity at 10 µM (168 GPCRs [12]; Antagonist mode, 10 uM) of 15.8%, an activity at 1 µM (168 GPCRs [12]; Antagonist, 1 uM) of 17.8% and an activity at 10 µM (168 GPCRs [13]; PPYR1, Antagonist mode, 10 uM) of 6.5%. It also gave an activity at 1 µM (168 GPCRs [13]; PPYR1, Antagonist, 1 uM) of 9.5%, an activity at 1 µM (168 GPCRs [14]; 1 uM) of 2.5% and an activity at 10 µM (168 GPCRs [14]; 10 uM) of 0.3%. The activity at 10 µM (168 GPCRs [15]; MRGPRX2, Antagonist mode, 10 uM) was 8.9%, the activity at 1 µM (168 GPCRs [15]; MRGPRX2, Antagonist, 1 uM) was 16.2% and the activity at 10 µM (168 GPCRs [16]; MRGPRX1, Antagonist mode, 10 uM) was -10.2%. It also gave an activity at 1 µM (168 GPCRs [16]; MRGPRX1, Antagonist, 1 uM) of -6.5%, an activity at 10 µM (168 GPCRs [17]; RXFP3, Antagonist mode, 10 uM) of 32.6% and an activity at 1 µM (168 GPCRs [17]; RXFP3, Antagonist, 1 uM) of 23.1%.
